In PMC10535318, “Benzimidazole-Based Schiff Base Hybrid Scaffolds: A Promising Approach to Develop Multi-Target Drugs for Alzheimer’s Disease” (Pharmaceuticals, 2023):
Where two headings read alike, the source gives them in different places.

Experiments:
[1] = biological target: T1, acetylcholinesterase (AChE) (Homo sapiens, UniProt P22303); assay: biochemical
T1 construct: purchased Sigma-Aldrich (Steinheim, Germany)
Procedure: (§1) All chemicals and reagents employed in the study were obtained from Merck or Sigma-Aldrich (St. Louis, MO, USA) (Darmstadt, Germany). Acetylcholinesterase (E.C.3.1.1.7) and butyrylcholinesterase (E.C. 3.1.1.8) were procured from Sigma–Aldrich (Steinheim, Germany). The ^1H NMR and ^13C NMR spectra were recorded using a Bruker FT-NMR spectrometer operating at the digital frequencies of 600 and 150 MHz (Bioscience, Bruker, Billerica, MA, USA). Mass spectra were acquired utilizing a Shimadzu LCMS-IT-TOF system (Kyoto, Japan) employing the electrospray ionization (ESI) technique. The purity of synthesized derivatives was checked through thin-layer chromatography using silica gel 60 F254 (Merck, KGaA, Darmstadt, Germany).
(§2) The study was carried out following the guidelines outlined in our previously published study.

[2] = biological target: T2, butyrylcholinesterase (BuChE) (Homo sapiens, UniProt P06276); assay: biochemical
T2 construct: purchased Sigma-Aldrich (Steinheim, Germany)
T2 sequence (P06276 29-602): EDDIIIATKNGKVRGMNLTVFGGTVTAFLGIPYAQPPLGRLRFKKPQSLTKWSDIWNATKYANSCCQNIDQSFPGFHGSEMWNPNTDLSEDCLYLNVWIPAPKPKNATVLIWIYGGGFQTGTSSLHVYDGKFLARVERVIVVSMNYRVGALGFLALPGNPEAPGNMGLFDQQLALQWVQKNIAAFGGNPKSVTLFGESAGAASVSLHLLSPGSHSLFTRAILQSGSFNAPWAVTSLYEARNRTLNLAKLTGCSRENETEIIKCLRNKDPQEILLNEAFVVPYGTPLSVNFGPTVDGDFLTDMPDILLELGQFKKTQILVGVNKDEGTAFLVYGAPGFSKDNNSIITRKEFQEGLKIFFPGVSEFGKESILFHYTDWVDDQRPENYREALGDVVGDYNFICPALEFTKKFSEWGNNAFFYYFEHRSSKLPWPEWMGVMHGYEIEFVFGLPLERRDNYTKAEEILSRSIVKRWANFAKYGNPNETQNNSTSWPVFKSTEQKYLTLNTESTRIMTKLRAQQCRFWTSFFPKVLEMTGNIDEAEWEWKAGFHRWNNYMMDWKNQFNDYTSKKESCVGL
Procedure: as §1, §2

[3] = in vitro, value ± standard error mean, read-out: AChE Inhibition IC50 ± SEM
[4] = in vitro, value ± standard error mean, read-out: BuChE Inhibition IC50 ± SEM

T1 sequence (P22303 32-614, species assumed): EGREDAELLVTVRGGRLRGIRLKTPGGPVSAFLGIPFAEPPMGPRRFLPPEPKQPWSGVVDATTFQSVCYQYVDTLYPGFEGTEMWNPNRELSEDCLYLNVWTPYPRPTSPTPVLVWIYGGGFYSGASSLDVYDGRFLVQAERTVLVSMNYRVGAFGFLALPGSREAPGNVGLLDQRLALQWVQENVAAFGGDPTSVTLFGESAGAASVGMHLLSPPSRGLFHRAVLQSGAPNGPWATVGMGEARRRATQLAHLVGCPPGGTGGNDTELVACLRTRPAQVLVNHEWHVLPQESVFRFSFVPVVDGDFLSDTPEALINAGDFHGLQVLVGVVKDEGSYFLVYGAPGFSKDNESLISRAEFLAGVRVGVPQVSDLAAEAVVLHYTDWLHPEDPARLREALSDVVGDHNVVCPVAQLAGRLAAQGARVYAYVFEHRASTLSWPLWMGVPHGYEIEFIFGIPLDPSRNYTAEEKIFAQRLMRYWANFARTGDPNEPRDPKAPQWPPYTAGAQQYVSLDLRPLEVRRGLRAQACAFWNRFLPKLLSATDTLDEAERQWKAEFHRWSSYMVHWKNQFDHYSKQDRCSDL

| Compound | IC50 [1] [µM] | IC50 [2] [µM] | IC50 [1, 3] [µM] | IC50 [2, 4] [µM] |
| --- | --- | --- | --- | --- |
| O=[N+]([O-])c1ccc(/C(CSc2nc3ccccc3[nH]2)=N/C2=CC=C(Nc3ccc([N+](=O)[O-])cc3O)C2)cc1 [Compound 1, (Z)-2-((4-((2-((1H-benzo[d]imidazol-2-yl)thio)-1-(4-nitrophenyl)ethylidene)amino)cyclopenta-1,3-dien-1-yl)amino)-5-nitrophenol] | 214 ± 11.6 | 249 ± 10.9 | – | – |
| Cc1cc([N+](=O)[O-])ccc1/C(CSc1nc2ccccc2[nH]1)=N/C1=CC=C(Nc2ccc([N+](=O)[O-])cc2O)C1 [Compound 2, (Z)-2-((4-((2-((1H-benzo[d]imidazol-2-yl)thio)-1-(2-methyl-4-nitrophenyl)ethylidene)amino)cyclopenta-1,3-dien-1-yl)amino)-5-nitrophenol] | 199 ± 10.2 | 204 ± 8.2 | – | – |
| O=[N+]([O-])c1ccc(NC2=CC=C(/N=C(\CSc3nc4ccccc4[nH]3)c3ccccc3[N+](=O)[O-])C2)c(O)c1 [Compound 3, (Z)-2-((4-((2-((1H-benzo[d]imidazol-2-yl)thio)-1-(2-nitrophenyl)ethylidene)amino)cyclopenta-1,3-dien-1-yl)amino)-5-nitrophenol] | 124 ± 10.2 | 131 ± 9.7 | – | – |
| Cc1ccc(/C(CSc2nc3ccccc3[nH]2)=N/C2=CC=C(Nc3ccc([N+](=O)[O-])cc3O)C2)cc1 [Compound 4, (Z)-2-((4-((2-((1H-benzo[d]imidazol-2-yl)thio)-1-(p-tolyl)ethylidene)amino)cyclopenta-1,3-dien-1-yl)amino)-5-nitrophenol] | – | – | 274 ± 7.6 | 285 ± 8.2 |
| O=[N+]([O-])c1ccc(NC2=CC=C(/N=C(\CSc3nc4ccccc4[nH]3)c3ccc(Cl)c(Cl)c3)C2)c(O)c1 [Compound 5, (Z)-2-((4-((2-((1H-benzo[d]imidazol-2-yl)thio)-1-(3,4-dichlorophenyl)ethylidene)amino)cyclopenta-1,3-dien-1-yl)amino)-5-nitrophenol] | – | – | 169 ± 7.7 | 179 ± 6.7 |
| O=[N+]([O-])c1ccc(NC2=CC=C(/N=C(\CSc3nc4ccccc4[nH]3)c3ccc([N+](=O)[O-])cc3Br)C2)c(O)c1 [Compound 6, (Z)-2-((4-((2-((1H-benzo[d]imidazol-2-yl)thio)-1-(2-bromo-4-nitrophenyl)ethylidene)amino)cyclopenta-1,3-dien-1-yl)amino)-5-nitrophenol] | 226 ± 10.1 | 274 ± 13.8 | – | – |
| O=[N+]([O-])c1ccc(NC2=CC=C(/N=C(\CSc3nc4ccccc4[nH]3)c3ccccc3Br)C2)c(O)c1 [Compound 7, (Z)-2-((4-((2-((1H-benzo[d]imidazol-2-yl)thio)-1-(2-bromophenyl)ethylidene)amino)cyclopenta-1,3-dien-1-yl)amino)-5-nitrophenol] | – | – | 314 ± 12.8 | 326 ± 13.1 |
| Cc1ccccc1/C(CSc1nc2ccccc2[nH]1)=N/C1=CC=C(Nc2ccc([N+](=O)[O-])cc2O)C1 [Compound 8, (Z)-2-((4-((2-((1H-benzo[d]imidazol-2-yl)thio)-1-(o-tolyl)ethylidene)amino)cyclopenta-1,3-dien-1-yl)amino)-5-nitrophenol] | – | – | 291 ± 12.6 | 304 ± 13.8 |
| COc1ccc(/C(CSc2nc3ccccc3[nH]2)=N/C2=CC=C(Nc3cccc([N+](=O)[O-])c3)C2)cc1O [Compound 9, (Z)-5-(2-((1H-benzo[d]imidazol-2-yl)thio)-1-((4-((3-nitrophenyl)amino)cyclopenta-1,3-dien-1-yl)imino)ethyl)-2-methoxyphenol] | – | – | 174 ± 6.76 | 181 ± 8.5 |
| O=[N+]([O-])c1ccc(NC2=CC=C(/N=C(\CSc3nc4ccccc4[nH]3)c3ccccc3)C2)c(O)c1 [Compound 10, (Z)-2-((4-((2-((1H-benzo[d]imidazol-2-yl)thio)-1-phenylethylidene)amino)cyclopenta-1,3-dien-1-yl)amino)-5-nitrophenol] | – | – | 343 ± 10.6 | 376 ± 12.8 |
| O=[N+]([O-])c1ccc(/C(CSc2nc3ccccc3[nH]2)=N/C2=CC=C(Nc3cccc([N+](=O)[O-])c3)C2)cc1 [Compound 11, (Z)-N-(4-((2-((1H-benzo[d]imidazol-2-yl)thio)-1-(4-nitrophenyl)ethylidene)amino)cyclopenta-1,3-dien-1-yl)-3-nitroaniline] | 268 ± 11.7 | 274 ± 9.1 | – | – |
| Cc1ccc(/C(CSc2nc3ccccc3[nH]2)=N/C2=CC=C(Nc3cccc([N+](=O)[O-])c3)C2)cc1 [Compound 12, (Z)-N-(4-((2-((1H-benzo[d]imidazol-2-yl)thio)-1-(p-tolyl)ethylidene)amino)cyclopenta-1,3-dien-1-yl)-3-nitroaniline] | – | – | 308 ± 8.8 | 318 ± 9.8 |
| Cc1cccc(/C(CSc2nc3ccccc3[nH]2)=N/C2=CC=C(Nc3cccc([N+](=O)[O-])c3)C2)c1 [Compound 13, (Z)-N-(4-((2-((1H-benzo[d]imidazol-2-yl)thio)-1-(m-tolyl)ethylidene)amino)cyclopenta-1,3-dien-1-yl)-3-nitroaniline] | – | – | 321 ± 13.5 | 354 ± 12.7 |
| Cc1ccccc1/C(CSc1nc2ccccc2[nH]1)=N/C1=CC=C(Nc2cccc([N+](=O)[O-])c2)C1 [Compound 14, (Z)-N-(4-((2-((1H-benzo[d]imidazol-2-yl)thio)-1-(o-tolyl)ethylidene)amino)cyclopenta-1,3-dien-1-yl)-3-nitroaniline] | – | – | 289 ± 11.5 | 311 ± 12.3 |
| Cc1cc([N+](=O)[O-])ccc1/C(CSc1nc2ccccc2[nH]1)=N/C1=CC=C(Nc2cccc([N+](=O)[O-])c2)C1 [Compound 15, (Z)-N-(4-((2-((1H-benzo[d]imidazol-2-yl)thio)-1-(2-methyl-4-nitrophenyl)ethylidene)amino)cyclopenta-1,3-dien-1-yl)-3-nitroaniline] | 217 ± 8.28 | 221 ± 8.7 | – | – |
| O=[N+]([O-])c1cccc(NC2=CC=C(/N=C(\CSc3nc4ccccc4[nH]3)c3ccccc3Br)C2)c1 [Compound 17, (Z)-N-(4-((2-((1H-benzo[d]imidazol-2-yl)thio)-1-(2-bromophenyl)ethylidene)amino)cyclopenta-1,3-dien-1-yl)-3-nitroaniline] | – | – | 234 ± 10.1 | 269 ± 9.6 |
| O=[N+]([O-])c1cccc(NC2=CC=C(/N=C(\CSc3nc4ccccc4[nH]3)c3ccc([N+](=O)[O-])cc3Br)C2)c1 [Compound 18, (Z)-N-(4-((2-((1H-benzo[d]imidazol-2-yl)thio)-1-(2-bromo-4-nitrophenyl)ethylidene)amino)cyclopenta-1,3-dien-1-yl)-3-nitroaniline] | 214 ± 8.2 | 247 ± 9.1 | – | – |
